The values below come from patent EP4588921A1, “FREE BASE CRYSTAL FORM OF POLYCYCLIC COMPOUND OF NITROGEN-CONTAINING HETEROCYCLE, AND PREPARATION METHOD THEREFOR” (Jiangsu Hansoh Pharmaceutical Group Co., Ltd., priority 2022, dated 2024).

A word on the pIC50: it is the IC50 on a negative log10 scale, so that one unit is a factor of ten. What is called AUC(0-inf) is total exposure, with the tail of the curve extrapolated. Low readings indicate low exposure, high ones high exposure. What is called Cmax is the peak of the concentration-time curve. One may read the Tmax as the time at which the peak concentration occurs. A word on the IC50: it is the concentration that gives 50% inhibition.

pIC50: −log10 of the molar value.

The target in one data set is T1, human OX1R (Homo sapiens, UniProt O43613).
T1 construct: expressed in transfected cells; host or cells: CHO-K1
T1 sequence (O43613 1-425): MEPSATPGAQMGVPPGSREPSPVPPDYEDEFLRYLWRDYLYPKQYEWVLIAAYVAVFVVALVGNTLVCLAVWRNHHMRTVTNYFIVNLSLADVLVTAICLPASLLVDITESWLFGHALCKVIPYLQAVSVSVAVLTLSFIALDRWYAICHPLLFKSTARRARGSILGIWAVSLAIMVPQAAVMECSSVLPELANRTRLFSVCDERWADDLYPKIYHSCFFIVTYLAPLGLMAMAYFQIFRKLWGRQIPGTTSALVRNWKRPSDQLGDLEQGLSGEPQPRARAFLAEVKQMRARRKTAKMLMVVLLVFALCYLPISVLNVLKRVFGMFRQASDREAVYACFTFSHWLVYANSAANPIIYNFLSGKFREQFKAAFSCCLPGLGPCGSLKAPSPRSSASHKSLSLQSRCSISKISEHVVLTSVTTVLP
In words: Calcium current (FLIPR) in cells stably expressing OX1 receptor. To be noted: CHO-K1/human OX1R cells; agonist OX-A at EC80; FLIPR Tetra. The format is cell-based. The protocol: (§1) Determination of the effect of the compounds of the present invention on calcium current in cells stably expressing OX1 and OX2 receptors 1. Experimental objective: The inhibitory effect of the compounds on calcium current activity in CHO-K1/human OX1R and CHO-K1/human OX2R cells was detected. 2. […] 3. […] The IC50 of the positive compounds and test compounds was determined. 4. Experimental data processing method: FLIPR Tetra was used to read and collect the fluorescence signal value (RFU). […] 5.

The target of the next data set is T2, human OX2R (Homo sapiens, UniProt O43614).
T2 construct: expressed in transfected cells; host or cells: CHO-K1
T2 sequence (O43614 1-444): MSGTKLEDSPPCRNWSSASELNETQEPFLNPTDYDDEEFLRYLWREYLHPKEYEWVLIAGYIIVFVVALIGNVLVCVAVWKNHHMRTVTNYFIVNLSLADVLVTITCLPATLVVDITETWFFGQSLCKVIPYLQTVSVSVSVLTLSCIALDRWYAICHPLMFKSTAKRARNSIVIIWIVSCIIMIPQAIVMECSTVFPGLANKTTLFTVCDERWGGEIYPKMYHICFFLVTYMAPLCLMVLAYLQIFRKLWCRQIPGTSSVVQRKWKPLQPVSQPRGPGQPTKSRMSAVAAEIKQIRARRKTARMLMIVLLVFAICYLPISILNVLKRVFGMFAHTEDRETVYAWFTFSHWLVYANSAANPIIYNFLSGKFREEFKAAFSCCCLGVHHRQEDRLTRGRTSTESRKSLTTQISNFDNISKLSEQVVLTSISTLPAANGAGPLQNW
In words: Calcium current (FLIPR) in cells stably expressing OX2 receptor. The format is cell-based. To be noted: for pIC50: CHO-K1/human OX2R cells, agonist OX-B at EC80, FLIPR Tetra; for Select fold: OX1R IC50 over OX2R IC50. The protocol: as §1

The next data set can be described thus: in vivo. To be noted: male, SD, rat, po, 5 mg/kg. The protocol:
SD rats were used as test animals to study the pharmacokinetic behaviour of the compounds of the present invention in rat (plasma) after oral administration at a dose of 5 mg/kg.
The example compound of the present invention, made in house.
Oral administration drug preparation: 20%HP-β-CD in Water
HP-β-CD powder (20 g) was weighed and dissolved in purified water (100 mL), and the mixture was homogeneously mixed by vortex and subjected to ultrasound treatment to afford a clear solution.
The example compound was weighed and added to a 20 mL glass bottle, the solution was added and the mixture was subjected to ultrasound treatment for 10 minutes to afford a colourless clear solution with a concentration of 0.5 mg/mL.
The brain tissues were rinsed with pre-cooled PBS, wiped dry, weighed, and stored at -80°C.
• 1) Acetonitrile (160 µL) was added to plasma sample (40 µL) for precipitation, and the mixture was mixed and centrifuged at 3500 × g for 5 to 20 minutes. • 2) The treated supernatant solution was taken and subjected to LC/MS/MS to analyse the concentrations of the test compounds. LC/MS/MS analysis instrument: AB Sciex API 4000 Qtrap.
• Liquid phase conditions: Shimadzu LC-20AD pump • Chromatographic column: Agilent ZORBAX XDB-C18 (50×2.1 mm, 3.5 µm) mobile phase: liquid A: 0.1% aqueous formic acid solution, liquid B: acetonitrile • Flow rate: 0.4 mL/min • Elution time: 0-4.0 min, the eluent is as follows:
The main pharmacokinetic parameters were calculated using WinNonlin 6.1.

For a further data set, the target named is T3, CYP450 1A2 (Homo sapiens, UniProt P05177).
T3 construct: Human liver microsome incubation system was used; from tissue; host or cells: human liver microsomes
T3 sequence (P05177 1-516): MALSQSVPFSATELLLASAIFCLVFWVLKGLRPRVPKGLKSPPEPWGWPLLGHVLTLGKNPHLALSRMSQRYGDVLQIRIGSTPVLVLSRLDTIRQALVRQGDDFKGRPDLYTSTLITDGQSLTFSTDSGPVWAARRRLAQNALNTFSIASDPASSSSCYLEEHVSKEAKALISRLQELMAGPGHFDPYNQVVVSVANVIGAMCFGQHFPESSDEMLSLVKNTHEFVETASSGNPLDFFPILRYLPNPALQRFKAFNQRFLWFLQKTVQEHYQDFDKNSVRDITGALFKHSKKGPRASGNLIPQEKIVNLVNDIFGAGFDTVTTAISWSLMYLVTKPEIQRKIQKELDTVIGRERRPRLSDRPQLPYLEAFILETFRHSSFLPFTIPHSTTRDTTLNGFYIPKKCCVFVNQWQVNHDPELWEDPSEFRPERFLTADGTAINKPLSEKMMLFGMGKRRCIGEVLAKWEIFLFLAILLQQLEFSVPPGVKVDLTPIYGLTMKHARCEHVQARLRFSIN
In words: CYP enzyme single point inhibition test, human liver microsomes. Conditions: 20 min incubation. The format is in vitro ADME. The protocol: (§2) Human liver microsome incubation system was used, and the single point method was used to quickly predict the inhibition of compounds on CYP450 enzyme subtypes.
(§3) NADPH (reduced nicotinamide adenine dinucleotide phosphate) was weighed and added to 100 mM phosphate buffer, with the final concentration being 2.5 mM.
(§4) Formulation of the reaction liquid of the test compound: The test example compound was weighed, diluted to 10 mM with DMSO, and diluted to 100 µM with 100 mM phosphate buffer.
(§5) • 1. Liver microsomes (40 µL), substrate (10 µL), and test compound (10 µL) were added to a 96-well plate and the mixture was pre-incubated for 3 min. • 2. NADPH (40 µL) was added. • 3. At 20 min, acetonitrile stop solution containing internal standard (300 µL) was added. • 4. The mixture was centrifuged and the sample was loaded.
For orientation: Microsomes from liver hold many membrane-bound enzymes, among them those of drug oxidation.

The next data set concerns the target T4, CYP450 2C19 (Homo sapiens, UniProt P33261).
T4 construct: Human liver microsome incubation system was used; from tissue; host or cells: human liver microsomes
Described as above. The format is in vitro ADME. Conditions: 20 min incubation. The protocol: as §2, §3, §4, §5

A further data set concerns the target T5, CYP450 2C9 (Homo sapiens, UniProt P11712).
T5 construct: Human liver microsome incubation system was used; from tissue; host or cells: human liver microsomes
The data set is described as above. The format is in vitro ADME. Conditions: 20 min incubation. The protocol:
as §2, §3, §4, §5

Another data set deals with T6, CYP450 2D6 (Homo sapiens, UniProt P10635).
T6 construct: Human liver microsome incubation system was used; from tissue; host or cells: human liver microsomes
T6 sequence (P10635 whole entry): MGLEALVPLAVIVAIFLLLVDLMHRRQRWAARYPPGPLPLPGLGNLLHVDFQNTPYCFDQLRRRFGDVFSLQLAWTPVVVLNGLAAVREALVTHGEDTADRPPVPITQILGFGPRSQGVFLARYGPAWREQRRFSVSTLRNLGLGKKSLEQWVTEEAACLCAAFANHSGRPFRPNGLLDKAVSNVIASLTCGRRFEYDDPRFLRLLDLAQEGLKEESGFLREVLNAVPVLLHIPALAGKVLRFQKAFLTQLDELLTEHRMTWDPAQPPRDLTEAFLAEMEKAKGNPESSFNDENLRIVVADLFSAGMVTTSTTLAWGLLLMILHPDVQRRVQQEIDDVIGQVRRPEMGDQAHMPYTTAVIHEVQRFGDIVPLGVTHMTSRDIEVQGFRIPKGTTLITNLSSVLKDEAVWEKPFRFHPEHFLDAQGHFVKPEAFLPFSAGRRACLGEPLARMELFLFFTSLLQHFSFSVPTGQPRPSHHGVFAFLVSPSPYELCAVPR
The data set is described as above. It counts as in vitro ADME. To be noted: 20 min incubation. The protocol:
as §2, §3, §4, §5

T4 sequence (P33261 whole entry): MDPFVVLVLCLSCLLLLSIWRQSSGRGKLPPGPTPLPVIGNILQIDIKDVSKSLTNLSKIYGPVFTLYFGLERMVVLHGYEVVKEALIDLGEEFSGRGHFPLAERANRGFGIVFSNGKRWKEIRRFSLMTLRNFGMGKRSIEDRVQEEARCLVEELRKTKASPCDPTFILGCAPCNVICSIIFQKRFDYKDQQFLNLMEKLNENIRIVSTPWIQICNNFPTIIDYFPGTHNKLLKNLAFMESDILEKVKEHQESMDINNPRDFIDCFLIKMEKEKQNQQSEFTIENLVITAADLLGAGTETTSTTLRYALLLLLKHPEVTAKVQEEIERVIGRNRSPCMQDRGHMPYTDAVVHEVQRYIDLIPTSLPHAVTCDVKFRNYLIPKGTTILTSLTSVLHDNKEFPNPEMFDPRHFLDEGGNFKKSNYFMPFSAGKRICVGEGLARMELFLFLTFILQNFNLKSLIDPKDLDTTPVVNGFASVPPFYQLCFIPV
T5 sequence (P11712 whole entry): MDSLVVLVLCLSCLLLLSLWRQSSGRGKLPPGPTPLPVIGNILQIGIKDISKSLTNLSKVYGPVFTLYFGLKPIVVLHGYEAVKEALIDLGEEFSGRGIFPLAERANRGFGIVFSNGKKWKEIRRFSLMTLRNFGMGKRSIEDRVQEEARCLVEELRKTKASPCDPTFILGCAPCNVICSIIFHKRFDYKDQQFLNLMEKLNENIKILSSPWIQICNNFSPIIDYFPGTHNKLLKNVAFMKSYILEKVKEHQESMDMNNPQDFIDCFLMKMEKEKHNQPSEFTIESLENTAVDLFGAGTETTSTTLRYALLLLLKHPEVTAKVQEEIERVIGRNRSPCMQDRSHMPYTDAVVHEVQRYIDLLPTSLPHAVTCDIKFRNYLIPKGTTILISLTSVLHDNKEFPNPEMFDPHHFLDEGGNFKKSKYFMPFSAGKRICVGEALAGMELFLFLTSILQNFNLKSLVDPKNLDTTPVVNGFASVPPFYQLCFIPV

In the case of `CC(C)(O)c1nc(N2C[C@H]3CN(C(=O)c4c(F)cccc4-c4ncccn4)C[C@H]3C2)ncc1F` [Compound 9, ((3aR,6aS)-5-(5-fluoro-4-(2-hydroxyprop-2-yl)pyrimidin-2-yl)hexahydropyrrolo[3,4-c]pyrrol-2(1H)-yl)(2-fluoro-6-(pyrimidin-2-yl)phenyl)methanone], the pIC50 at human OX1R was 5.97; at human OX2R it was 8.06. Moreover, the Select fold on human OX2R worked out at 122. Moreover, the AUC(0-inf) in “in vivo” amounted to 130 ng·h/mL. Also, the Cmax in the data set “in vivo” was 124 ng/mL. The Tmax in “in vivo” was determined as 36 min. For the same compound, the IC50 is above 100 µM on CYP450 1A2, 82.7 µM against CYP450 2C19, above 100 µM against CYP450 2C9 and above 100 µM at CYP450 2D6.

As to `Cc1nc(N2C[C@H]3CN(C(=O)c4cccc(F)c4-n4nccn4)C[C@H]3C2)nc(C(C)(C)O)c1F` [Compound 11, (3-fluoro-2-(2H-1,2,3-triazol-2-yl)phenyl)((cis)-5-(5-fluoro-4-(2-hydroxypropan-2-yl)-6-methylpyrimidin-2-yl)hexahydropyrrolo [3,4-c]pyrrol-2(1H)-yl)methanone], the pIC50 is 5.88 on human OX1R and 7.57 at human OX2R. Further, the Select fold at human OX2R is 49. The compound also came in with an AUC(0-inf) in “in vivo” of 821 ng·h/mL. The compound also had a Cmax in the data set “in vivo” of 394 ng/mL. The Tmax in the data set “in vivo” is 15 min. Besides, the IC50 against CYP450 1A2 was above 100 µM; at CYP450 2C19, 82.7 µM; at CYP450 2C9 it was above 100 µM; at CYP450 2D6 it was above 100 µM.
